# Activity calls are given as the source filed them. The calls are words filed in the database; no cut-off is given here.
# Experiments:
# Mus musculus [1] = assay: Anticonvulsant activity in ip dosed Carworth farms No.1 albino mouse assessed as protection against maximum electroshock; format: functional
# Mus musculus [2] = assay: Anticonvulsant activity in ip dosed Carworth farms No.1 albino mouse assessed as protection against subcutaneous metrazole-induced seizures; format: functional
# Mus musculus [3] = species: Mus musculus; assay: Anticonvulsant activity in maximum electroshock-induced Carworth farms No.1 albino mouse assessed as time of peak effect; format: functional
# Mus musculus [4] = assay: Anticonvulsant activity in Carworth farms No.1 albino mouse assessed as protection against maximum electroshock at 30 mg/kg, ip measured after 0.5 hrs; format: functional, organism-based; parameters: dose 30 mg/kg
# Mus musculus [5] = assay: Anticonvulsant activity in Carworth farms No.1 albino mouse assessed as protection against maximum electroshock at 100 mg/kg, ip measured after 0.5 hrs; format: functional, organism-based; parameters: dose 100 mg/kg
# Mus musculus [6] = assay: Anticonvulsant activity in Carworth farms No.1 albino mouse assessed as protection against maximum electroshock at 300 mg/kg, ip measured after 0.5 hrs; format: functional, organism-based; parameters: dose 300 mg/kg
# Mus musculus [7] = assay: Anticonvulsant activity in Carworth farms No.1 albino mouse assessed as protection against maximum electroshock at 30 mg/kg, ip measured after 4 hrs; format: functional, organism-based; parameters: dose 30 mg/kg
# Mus musculus [8] = assay: Anticonvulsant activity in Carworth farms No.1 albino mouse assessed as protection against maximum electroshock at 100 mg/kg, ip measured after 4 hrs; format: functional, organism-based; parameters: dose 100 mg/kg
# Mus musculus [9] = assay: Anticonvulsant activity in Carworth farms No.1 albino mouse assessed as protection against maximum electroshock at 300 mg/kg, ip measured after 4 hrs; format: functional, organism-based; parameters: dose 300 mg/kg
# Mus musculus [10] = assay: Anticonvulsant activity in Carworth farms No.1 albino mouse assessed as protection against subcutaneous metrazole-induced seizures at 30 mg/kg, ip measured after 0.5 hrs; format: functional, organism-based; parameters: dose 30 mg/kg
# Mus musculus [11] = assay: Anticonvulsant activity in Carworth farms No.1 albino mouse assessed as protection against subcutaneous metrazole-induced seizures at 100 mg/kg, ip measured after 0.5 hrs; format: functional, organism-based; parameters: dose 100 mg/kg
# Mus musculus [12] = assay: Anticonvulsant activity in Carworth farms No.1 albino mouse assessed as protection against subcutaneous metrazole-induced seizures at 300 mg/kg, ip measured after 0.5 hrs; format: functional, organism-based; parameters: dose 300 mg/kg
# Mus musculus [13] = assay: Anticonvulsant activity in Carworth farms No.1 albino mouse assessed as protection against subcutaneous metrazole-induced seizures at 30 mg/kg, ip measured after 4 hrs; format: functional, organism-based; parameters: dose 30 mg/kg
# Mus musculus [14] = assay: Anticonvulsant activity in Carworth farms No.1 albino mouse assessed as protection against subcutaneous metrazole-induced seizures at 100 mg/kg, ip measured after 4 hrs; format: functional, organism-based; parameters: dose 100 mg/kg
# Mus musculus [15] = assay: Anticonvulsant activity in Carworth farms No.1 albino mouse assessed as protection against subcutaneous metrazole-induced seizures at 300 mg/kg, ip measured after 4 hrs; format: functional, organism-based; parameters: dose 300 mg/kg
# Mus musculus [16] = assay: Neurotoxicity in Carworth farms No.1 albino mouse assessed as neurological impairment at 30 mg/kg, ip measured after 0.5 hrs; format: toxicity, organism-based; parameters: dose 30 mg/kg, route intraperitoneal; settings: in vivo
# Mus musculus [17] = assay: Neurotoxicity in Carworth farms No.1 albino mouse assessed as neurological impairment at 100 mg/kg, ip measured after 0.5 hrs; format: toxicity, organism-based; parameters: dose 100 mg/kg, route intraperitoneal; settings: in vivo
# Mus musculus [18] = assay: Neurotoxicity in Carworth farms No.1 albino mouse assessed as neurological impairment at 300 mg/kg, ip measured after 0.5 hrs; format: toxicity, organism-based; parameters: dose 300 mg/kg, route intraperitoneal; settings: in vivo
# Mus musculus [19] = assay: Neurotoxicity in Carworth farms No.1 albino mouse assessed as neurological impairment at 30 mg/kg, ip measured after 4 hrs; format: toxicity, organism-based; parameters: dose 30 mg/kg, route intraperitoneal; settings: in vivo
# Mus musculus [20] = assay: Neurotoxicity in Carworth farms No.1 albino mouse assessed as neurological impairment at 100 mg/kg, ip measured after 4 hrs; format: toxicity, organism-based; parameters: dose 100 mg/kg, route intraperitoneal; settings: in vivo
# Mus musculus [21] = assay: Neurotoxicity in Carworth farms No.1 albino mouse assessed as neurological impairment at 300 mg/kg, ip measured after 4 hrs; format: toxicity, organism-based; parameters: dose 300 mg/kg, route intraperitoneal; settings: in vivo
# Mus musculus [22] = assay: Anticonvulsant activity in Carworth farms No.1 albino mouse assessed as protection against maximum electroshock at 100 mg/kg, ip measured after 2 hrs; format: functional, organism-based; parameters: dose 100 mg/kg
# Mus musculus [23] = assay: Anticonvulsant activity in Carworth farms No.1 albino mouse assessed as protection against subcutaneous metrazole-induced seizures at 100 mg/kg, ip measured after 2 hrs; format: functional, organism-based; parameters: dose 100 mg/kg
structure (smiles),measurement,setting,value
O=C1NC(=O)C(c2ccccc2)(c2ccccc2)N1 [PHENYTOIN],ED50,Mus musculus [1],5.64 mg/kg
same,ED50,Mus musculus [2],> 50 mg/kg
same,Time,Mus musculus [3],1 h
Cl.O=C1[C@H](c2ccccc2)N2CCCC[C@H]2C(=O)N1Cc1ccccc1,Activity,Mus musculus [4],inactive
same,Activity,Mus musculus [5],inactive
same,Activity,Mus musculus [6],inactive
same,Activity,Mus musculus [7],inactive
same,Activity,Mus musculus [8],inactive
same,Activity,Mus musculus [9],Active
same,Activity,Mus musculus [10],inactive
same,Activity,Mus musculus [11],inactive
same,Activity,Mus musculus [12],inactive
same,Activity,Mus musculus [13],inactive
same,Activity,Mus musculus [14],inactive
same,Activity,Mus musculus [15],inactive
same,Activity,Mus musculus [16],Non-toxic
same,Activity,Mus musculus [17],Non-toxic
same,Activity,Mus musculus [18],Non-toxic
same,Activity,Mus musculus [19],Non-toxic
same,Activity,Mus musculus [20],Non-toxic
same,Activity,Mus musculus [21],Non-toxic
same,Activity,Mus musculus [22],Active
same,Activity,Mus musculus [23],Active

# From ChEMBL document CHEMBL1944578, “Synthesis and anticonvulsant activity of novel 2,6-diketopiperazine derivatives. Part 2: Perhydropyrido[1,2-a]pyrazines” (Eur J Med Chem, 2012)
